Reference: US20190359653A1, “SELECTIVE PEPTIDE INHIBITORS OF FRIZZLED” (Genentech, Inc., priority 2016, published 2019)
“Also recorded” adds a separate entry of the source.

Legend:
[1] = biological target: T1, Wnt3a binding to FZD4 CRD (Homo sapiens, UniProt Q9ULV1); experiment: ELISA of biotinylated Wnt3a binding to FZD CRD-Fc; conditions: peptide 0-10 μM
T1 construct: hFZD4 CRD-Fc (cat no. 5847-FZ); purchased R&D systems 5847-FZ
T1 sequence (Q9ULV1 40-161 limits assumed): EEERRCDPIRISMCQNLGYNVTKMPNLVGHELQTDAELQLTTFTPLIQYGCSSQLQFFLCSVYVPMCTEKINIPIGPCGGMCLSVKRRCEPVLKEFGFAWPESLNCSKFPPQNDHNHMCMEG
Procedure: 384-well Maxisorp plates (cat. no. 464718; Thermo Scientific) were incubated with 30 μL of Neutravidin (cat. no. 31000, Thermo Scientific; 2 μg/mL in PBS) overnight at 4° C. Plates were then washed with PBST and blocked with PBS/1% BSA for 1 hour at RT and then washed with PBST prior to further processing. The binding assay was conducted in 96 well plates (cat no. 83007-374; VWR) which were blocked with PBS/1% BSA overnight at 4° C. hFZD4 CRD-Fc or hFZD7 CRD-Fc (63 ng/mL) were incubated with either Bio-Wnt3a (25 ng/mL) or Bio-Wnt5a (50 ng/mL) in the presence of 4-fold serial dilutions of the indicated peptide in PBS overnight at 4° C. All assays included hFZD9 CRD-mIgG2A protein as a negative control. hFZD7 CRD-His was suspended in 150 mM NaCl, 50 mM Tris-HCl at pH 7.5 and when used in assays an equal volume of the same buffer control was used. The binding assay mixtures were transferred to the Neutravidin coated plates and incubated for ˜1 h at RT. The wells were then washed with PBST, incubated with anti-hIgG1-HRP (1:10,000 suspended in PBS supplemented with 1% BSA; cat. no. A18817, Invitrogen), and washed again with PBST. The signal was developed with the addition of TMB reagent (following the manufacturer's recommendation; KPL; 50-76-00) for 15 min prior to the addition of an equal volume of 1 M phosphoric acid for 10 min Absorbance was measured at 450 nm using a Tekan M1000 plate reader. Values were collected and plotted using Prism Graphpad software. All assay conditions using peptides were at 1% DMSO final concentration.
Without being bound be theory, the substantial conformational change induced by dFz7-21 on hFZD7 CRD, as exemplified by the altered geometry of the lipid binding cavity, may facilitate the accommodation of two Wnt molecules simultaneously onto the hFZD7 CRD dimer (FIG. 4e-h).
Similar results were observed using Wnt3a. […] Binding of Wnt3a to FZD1 CRD, FZD2 CRD, and FZD7 CRD increased in the presence of dFz7-21 at concentrations below about 0.5 μM (FIG. 22E), with the most binding seen in the presence of 0.01 μM-0.05 μM dFz7-21. […] Fz7-21S had no effect on Binding of Wnt3a to any of the FZD CRDs tested (FIG. 22F).

[2] = tested on: mouse intestinal organoids; experiment: organoid budding / stem cell potential; type: cell-based; conditions: 48 h; dFz7-21 1-200 μM, Fz7-21S 200 μM; FIG. 18
Procedure: Mouse organoids were established from isolated crypts collected from the entire length of the small intestine and maintained as previously described (Sato et al. (2009) Nature 459, 262-265 (2009). All mouse derived tissue was performed according to the animal use guidelines of Genentech, a Member of the Roche Group, and the Institutional Animal Care and Use Committee, conforming to California State legal and ethical practices. Mouse sex was not selected for. Organoids were passaged at least twice per week and grown using IntestiCult Organoid growth media (cat. no. 06005; StemCell Technologies). […]
The organoid culture system faithfully recapitulates the intestinal epithelium including the presence of crypt-villus morphology. […] Therefore, stem cell function of the organoid population (a Wnt-dependent process) was quantitatively assessed by scoring the number of formed buds per organoid (Grabinger et al. (2014) “Ex vivo culture of intestinal crypt organoids as a model system for assessing cell death induction in intestinal epithelial cells and enteropathy.” Cell Death & Disease 5, e1228). […] Morphologies of representative mouse intestinal organoids after 48 h treatment are shown in FIGS. 17A-G. Next, organoid stem cell (SC) potential after peptide treatment was quantified. […]

Row | Sequence | effect on Wnt3a binding to FZD4 CRD [1] | budding events / organoid stem cell potential [2]
1 | LPSDDLEFWSHVMY [Fz7-21S, negative control] | showed no effect | did not show any major effects
2 | LPSDDLEFWCHVMY [dFz7-21] | did not show any effect; also recorded: Neither Fz7-21 nor dFz7-21 had any effect | dramatically reduced
